Measurements from US5573772A, “Methods for protecting tissues and organs from ischemic damage” (priority 1994, dated 1996).

Tested on: isolated rabbit hearts
Test: Infarct size after 30 min coronary branch occlusion and 120 min reperfusion in isolated rabbit hearts, Example 1
Parameters: species or system rabbit (New Zealand white)
Conditions: for Infarct size compared with control group: ADO 10 uM or APNEA 50 nM, p<0.01
Description: These solutions were then diluted in Krebs buffer to the final concentration just before the experiments started. New Zealand white rabbits of either sex, between 1.4-2.4 kg, were anesthetized with intravenous sodium pentobarbital (30 mg/kg). The neck was opened and a tracheotomy was performed. The rabbits were ventilated with 100% oxygen via a positive pressure respirator (MD industries, Mobile, Ala.). Ventilation rate was 30-35 breaths per minute, and tidal volume was approximately 15 ml. A left thoracotomy was performed in the fourth intercostal space and pericardium was opened to expose the heart. A 2-0 silk suture with an RB taper needle was passed around a branch of the left coronary artery, and the end of the silk were threaded through a small vinyl tube to form a snare. The heads were quickly excised and mounted on a Langendorff apparatus and perfused at constant pressure with Krebs buffer containing (in mM) 118.5 NaCl, 4.7 KCl, 1.2 MgSO4, 1.2 K2 PO4, 24.3 NaHCO3, 2.5 CaCl2 and 10 glucose. […] The temperature of the perfusate was maintained at 37° C. The perfusion pressure was kept at 75 mm Hg. Pacing electrodes were placed on the right atrium and all hearts were paced at 200 beats/minute with pulses of 5 volts and 4 msec duration to keep the heart rate constant. A fluid-filled latex balloon connected to a transducer via PE240 tubing was inserted into the left ventricle. Balloon volume was adjusted to set the left ventricular diastolic pressure at 10 mm Hg at the beginning of the experiment. Total coronary artery flow was measured by timed collection of buffer from the chamber into a graduated cylinder. Regional ischemia was effected by pulling the snare tight and clamping the tube with a hemostat. Global ischemia was performed by clamping the inflow tubing of the Langendorff apparatus. Reperfusion was achieved by releasing the restriction. All hearts were allowed to equilibrate for 20 minutes before the experiments were started. Heart rate (HR), coronary flow (CF) and left ventricular developed pressure (LVDP) were recorded at the point just before and at the end of each treatment with the pacing momentarily turned off. […] The hearts were removed from the Langendorff apparatus, weighed and then frozen. The hearts were cut into 2 mm transverse slices. The slices were thawed and incubated in 1% triphenyl tetrazolium chloride (TTC) in pH 7.4 buffer for 20 minutes at 37° C. TTC reacts with NADH and dehydrogenase enzymes and stains all tissue still having them to a deep red color. […] After staining, the area of infarcted tissue (TTC negative tissue) and the risk zone (area lacking fluorescence under ultraviolet light) in each slice were traced. The area of infarct and risk zone were determined by planimetry of the tracing. The volume of infarcted myocardium and myocardium at risk was then calculated by multiplying the planimetered areas by the slice thickness. The animals were divided into 10 groups. The hearts in all groups were subjected to 30 minutes of coronary branch occlusion followed by 120 minutes of reperfusion. Control group (CON, n=10) only experienced the above-mentioned 30 minutes of regional ischemia while the preconditioned group (PC, n=12) received an additional 5 minutes of global ischemia plus 10 minutes of reperfusion prior to the 30 minute occlusion. In the adenosine group (ADO, n=6) and the APNEA group (APNEA, n=5), the hearts were exposed to 10 uM adenosine and 50 nM APNEA respectively, for 5 minutes as a substitute for ischemic preconditioning. The drug was allowed to washout for 10 minutes before the 30 minute ischemia was started. In groups receiving SPT, the blocker was included in the perfusate for 15 minutes at 100 uM starting 5 minutes before the exposure of ADO (ADO-SPT group, n=6) or APNEA (APNEA-SPT group, n=5) or 5 minutes before and after 5 minutes of preconditioning ischemia (PC-SPT group, n=5). […] All results are expressed as group mean±SEM. […]

## Nc1ncnc2c1ncn2[C@@H]1O[C@H](CO)[C@@H](O)[C@H]1O [ADO, Adenosine]
  Infarct size compared with control group: significantly smaller than those in the control group
ADO 10 uM, 5 minutes, control 29.4±2.9%, PC 10.8±2.8%
  Infarct size (area at risk infarcted): 11.4±2.1%

## Nc1ccc(CCNc2ncnc3c2ncn3[C@@H]2O[C@H](CO)[C@@H](O)[C@H]2O)cc1 [APNEA, N^6-(2-(4-aminophenyl)ethyl) adenosine]
  Infarct size compared with control group: significantly smaller than those in the control group
APNEA 50 nM, 5 minutes, control 29.4±2.9%
  Infarct size (area at risk infarcted): 11.9±2.3%

## CCCn1c(=O)c2[nH]c(C3CCCC3)nc2n(CCC)c1=O [DPCPX, 8-cyclopentyl-1,3-dipropylxanthine]
DPCPX 200 nM + ADO 10 uM (ADO-DPCPX)
  Infarct size (area at risk infarcted): 14.4±7.0%
DPCPX 200 nM + APNEA 50 nM (APNEA-DPCPX)
  Infarct size (area at risk infarcted): 8.7±1.7%
DPCPX 200 nM + PC (PC-DPCPX)
  Infarct size (area at risk infarcted): 15.6±7.8%

## Cn1c(=O)c2[nH]c(-c3ccc(S(=O)(=O)O)cc3)nc2n(C)c1=O [SPT, 8-(p-Sulfophenyl)-theophylline]
SPT 100 uM + ADO 10 uM (ADO-SPT)
  Infarct size (area at risk infarcted): 29.8±3.4%
SPT 100 uM + APNEA 50 nM (APNEA-SPT)
  Infarct size (area at risk infarcted): 32.8±3.3%
SPT 100 uM + PC (PC-SPT)
  Infarct size (area at risk infarcted): 33.8±2.4%
